Source: patent US9157088B2, “Transferases, epimerases, polynucleotides encoding these and uses thereof” (priority 2007, dated 2015)
One block for each molecule: values may come before it.

What was measured:
[1] = target: T1, L-Galactose-1-Phosphate phosphatase (Arabidopsis thaliana, UniProt Q9M8S8); settings: cited from earlier work
T1 construct: made in house; host or cells: E. coli
T1 sequence (Q9M8S8 1-271): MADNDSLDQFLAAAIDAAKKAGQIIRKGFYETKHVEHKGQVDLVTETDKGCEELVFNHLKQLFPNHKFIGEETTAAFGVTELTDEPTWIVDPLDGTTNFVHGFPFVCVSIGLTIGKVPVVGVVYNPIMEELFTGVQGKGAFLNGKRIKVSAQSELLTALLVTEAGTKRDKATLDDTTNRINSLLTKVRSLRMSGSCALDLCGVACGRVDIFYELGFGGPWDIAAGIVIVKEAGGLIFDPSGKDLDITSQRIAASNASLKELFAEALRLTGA

[2] = target: kiwifruit GDP-L-Galactose Guanyltransferase EST 319998 (Actinidia chinensis, UniProt A0A2R6QD99); assay: Continuous coupled assay of transferase activity with guanyl acceptors; settings: sugar phosphate as guanyl acceptor, epimerase generated substrate
Sequence of kiwifruit GDP-L-Galactose Guanyltransferase EST 319998 (A0A2R6QD99 entry or part of it): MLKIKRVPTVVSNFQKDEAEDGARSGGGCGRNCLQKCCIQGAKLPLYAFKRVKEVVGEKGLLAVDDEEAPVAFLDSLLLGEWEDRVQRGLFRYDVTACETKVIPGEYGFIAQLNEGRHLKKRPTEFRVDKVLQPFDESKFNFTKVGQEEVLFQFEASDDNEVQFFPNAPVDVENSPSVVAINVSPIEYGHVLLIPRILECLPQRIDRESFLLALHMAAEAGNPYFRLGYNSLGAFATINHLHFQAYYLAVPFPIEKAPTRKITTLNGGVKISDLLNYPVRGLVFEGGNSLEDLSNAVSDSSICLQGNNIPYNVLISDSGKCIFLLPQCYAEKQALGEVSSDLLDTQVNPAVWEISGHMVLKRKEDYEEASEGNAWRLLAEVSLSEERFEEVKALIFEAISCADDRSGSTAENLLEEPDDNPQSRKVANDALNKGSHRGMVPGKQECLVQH
Method: (§1) Expression of genes in E. coli. The EST 319998 from young fruit of Actinidia chinensis and At4g26850 were each cloned into pET30A (Novagene, USA), their sequence checked and expressed in E. coli. The N terminal His6 tag was used to purify the protein. An empty vector control was expressed and purified in parallel. Techniques were essentially as described earlier (Laing et al., 2004).
L-Galactose dehydrogenase (Gen Bank accession AA018639 (EST 56121), 1.5 ug/assay) was cloned from an EST derived from an A. deliciosa (kiwifruit) shoot bud library with a maltose binding protein presequence and assayed as described previously (Laing et al., 2004). L-Galactose-1-Phosphate phosphatase was cloned from Arabidopsis thaliana (At3g02870, 3.1 ug/assay) and assayed as described (Laing et al., 2004). GDP-D-Mannose 3′,5′-Epimerase (198296) was cloned from dormant kiwifruit (A. deliciosa) buds three days after hydrogen cyanamide treatment and assayed as described (Wolucka et al., 2001). The former two enzymes are highly specific as to their substrates (Laing et al., 2004; Laing et al., 2004).
The assay for GDP-L-Galactose-1-Phosphate Guanyltransferase was run in 20 mM TrisCl, pH 8.0, GDP-L-Galactose, with 1 mM D-Mannose-1-Phosphate. […] In the latter case, 0.21 mg of epimerase was incubated with GDP-D-Mannose in 20 mM Tris Cl pH 8 in a total volume of 400 μL (see Wolucka et al., 2001) for 30 minutes at 20 C and then used directly in the assay at a 1 to 20 dilution. Assays were either terminated after 10 minutes by heating to 100 C for three minutes, or directly coupled to the phosphatase and L-Galactose dehydrogenase to measure product formation during the assay. Heat terminated assays were cooled on ice, centrifuged to remove precipitated protein and L-Galactose assayed using the coupling enzymes described above (see also (Laing et al., 2004)).
The applicants used two assays to characterise the enzyme, using two sources of the substrate GDP-L-Galactose. The first assay used the E. coli expressed coupling enzymes L-Galactose-1-Phosphate phosphatase and L-Galactose dehydrogenase. […] The applicants either measured the product formed by adding the coupling enzymes in the assay and measuring the time course of NADH formed, or by stopping the reaction after 10 minutes by boiling for 3 minutes and centrifuging. To this latter fixed time assay, the applicants then either adding coupling enzymes to measure L-Galactose production or using the LCMS to measure the products. The LCMS was used only to confirm the results of the coupled enzyme reaction and to measure the reverse reaction.

[3] = test system: L-Galactose dehydrogenase; settings: cited from earlier work
[4] = Transferase activity of E. coli expressed enzymes (coupled reaction and LCMS); type: biochemical; settings: enzyme expressed in E. coli, His tag purified
Method: as §1, with “2004). In much of this work the His-protein was further purified on a 5 mL HiTrap Q FF column (GE Healthcare), and identical results were obtained with both preparations.” for “2004).”
The assay for GDP-L-Galactose-1-Phosphate Guanyltransferase was run in 20 mM TrisCl, pH 8.0, GDP-L-Galactose, with 1 mM D-Mannose-1-Phosphate. GDP-L-Galactose was either used directly from the Glycoteam product (in which case high backgrounds were observed due to contaminating L-Galactose-1-Phosphate) or GDP-L-Galactose was generated using the epimerase. In the latter case, 0.21 mg of epimerase was incubated with GDP-D-Mannose in 20 mM Tris Cl pH 8 in a total volume of 400 μL (see Wolucka et al., 2001) for 30 minutes at 20 C and then used directly in the assay at a 1 to 20 dilution. Assays were either terminated after 10 minutes by heating to 100 C for three minutes, or directly coupled to the phosphatase and L-Galactose dehydrogenase to measure product formation during the assay. Heat terminated assays were cooled on ice, centrifuged to remove precipitated protein and L-Galactose assayed using the coupling enzymes described above (see also (Laing et al., 2004)). Assays for L-Galactose were linear with added L-Galactose-1-Phosphate over the range measured. Backgrounds were run using the empty vector control, which gave the same result as a boiled enzyme control. […]
The applicants used two assays to characterise the enzyme, using two sources of the substrate GDP-L-Galactose. […] The applicants either measured the product formed by adding the coupling enzymes in the assay and measuring the time course of NADH formed, or by stopping the reaction after 10 minutes by boiling for 3 minutes and centrifuging. […]

- % of D-mannose-1P [2]: 126%
- Rate ([2]; N = 6): 0.42 nmoles/sec/ug protein
Molecule: O=P(O)(O)OC1[C@@H](O)[C@H](O)C(O)[C@H](O)[C@@H]1O (stereo partly drawn) [L-Myoinositol-1-P]
- dephosphorylation by L-Galactose-1-Phosphate phosphatase [1]: significantly dephosphorylating

Molecule: O=C[C@@H](O)[C@@H](O)[C@H](O)[C@H](O)CO [D-Mannose]
- reaction with L-Galactose dehydrogenase [3]: not reacting

Molecule: O=C[C@H](O)[C@@H](O)[C@@H](O)[C@H](O)CO [D-Galactose]
- reaction with L-Galactose dehydrogenase [3]: not reacting

B1: At4g26850: GDP-L-Galactose Guanyltransferase, VTC2 from Arabidopsis thaliana (protein, listed as Arabidopsis thaliana)
chain: MLKIKRVPTVVSNYQKDDGAEDPVGCGRNCLGACCLNGARLPLYACKNLVKSGEKLVISHEAIEPPVAFLESLVLGEWEDRFQRGLFRYDVTACETKVIPGKYGFVAQLNEGRHLKKRPTEFRVDKVLQSFDGSKFNFTKVGQEELLFQFEAGEDAQVQFFPCMPIDPENSPSVVAINVSPIEYGHVLLIPRVLDCLPQRIDHKSLLLAVHMAAEAANPYFRLGYNSLGAFATINHLHFQAYYLAMPFPLEKAPTKKITTTVSGVKISELLSYPVRSLLFEGGSSMQELSDTVSDCCVCLQNNNIPFNILISDCGRQIFLMPQCYAEKQALGEVSPEVLETQVNPAVWEISGHMVLKRKEDYEGASEDNAWRLLAEASLSEERFKEVTALAFEAIGCSNQEEDLEGTIVHQQNSSGNVNQKSNRTHGGPITNGTAAECLVLQ
- GDP-L-Galactose Guanyltransferase activity of the expressed enzyme [4]: showed transferase activity
- GDP-L-Galactose Guanyltransferase activity of the expressed enzyme ([4]; listed as At4g26): could catalyse the conversion of GDP-L-Galactose to L-Galactose-1-P
